Measured values published in patent US20230338564A1, “NEODEGRADER CONJUGATES” (Orum Therapeutics, Inc., priority 2020, published 2023).

Assays:
[1] = tested on: NCI-H2030 cell line (Lung); test: In vitro antiproliferation assay, General Procedure 1 (WST-8); format: cell-based; settings: Homo sapiens
Procedure: (§1) The ability of neoDegrader conjugates to inhibit cell growth was measured using in vitro anti-proliferation assay. […] Conjugates were diluted in complete cell growth medium using 4-fold serial dilutions and 100 µL was added per well. […] Viability of remaining cells was determined by colorimetric WST-8 assay (Dojindo Molecular Technologies, Inc., Rockville, MD, US). WST-8 was added to 10% of the final volume and plates were incubated at 37° C. in a humidified 5% CO2 incubator for 2-4 hours. Plates were analyzed by measuring the absorbance at 450 nm (A450) in a multi-well plate reader. Background A450 absorbance of wells with media and WST-8 only was subtracted from all values. The percent viability was calculated by dividing each treated sample value by the average value of wells with untreated cells. The percent viability value was plotted against the test sample concentration in a semi-log plot for each treatment. IC50 values were calculated automatically.

[2] = tested on: Ramos (non-Hodgkins lymphoma) cell line; test: as above; format: cell-based
Procedure: as §1

[3] = tested on: NCI-N87 gastric cancer cell line; test: as above; format: cell-based
Procedure: as §1

[4] = tested on: CFPAC-1 cell line (Pancreatic); test: as above; format: cell-based; settings: Homo sapiens
Procedure: as §1

[5] = tested on: Daudi lymphoma cell line; test: as above; format: cell-based
Procedure: as §1

[6] = tested on: BT-474 breast cancer cell line; test: as above; format: cell-based; settings: Homo sapiens, BT-474, read-out: IC50, BT-474, conjugates DAR 8, comparators DAR not given
Procedure: as §1

[7] = tested on: JHUEM-3 cell line (Uterus); test: as above; format: cell-based
Procedure: as §1

[8] = tested on: SK-BR-3 breast cancer cell line; test: as above; format: cell-based
Procedure: as §1

[9] = tested on: HCC1954 cell line (Breast); test: as above; format: cell-based; settings: Homo sapiens, conjugates DAR 8
Procedure: as §1

[10] = tested on: RPMI7951 cell line; test: In vitro antiproliferation assay, General Procedure 2 (CCK-8); format: cell-based; settings: Homo sapiens, RPMI-7951; Skin
Description: (§2) Cell Culture: Cell lines were obtained from the American Type Culture Collection (ATCC, Manassas, VA, USA) or Deutsche Sammlung von Mikroorganismen und Zellkulturen (DSMZ, Braunschweig, Germany) and maintained according to the culturing conditions specified by ATCC or DSMZ. Cells were thawed out and maintained in culture for at least two passages before proceeding with experimental conditions.
(§3) Cytotoxicity assays: For adherent cell lines, the cells were dissociated with enzyme-free PBS-based cell dissociation buffer (Gibco, USA) and plated on tissue culture treated 96-well flat bottom polystyrene plates (Costar, Corning, USA) at appropriate cell densities depending on doubling time of the cells. 18 hours after plating, cells were treated with test articles at appropriate concentrations starting at 100 nM and diluted in 4-fold serial dilutions. For suspension cell lines, the cells were seeded on the same day of treatment and cells were treated as described above. Adherent cells were treated for 5 days and suspension cells were treated for 3 days. Cell proliferation was assessed using the Cell Counting Kit-8 (CCK-8, Dojindo Laboratories, Japan) and measurements were obtained using the Promega GloMax Discover plate reader (Promega, USA). Data were analyzed using GraphPad Prism software (GraphPad Software, San Diego, CA). All data points were obtained from technical triplicates and the experiments were validated using three biological replicates.

[11] = tested on: AGS cell line; test: as above; format: cell-based; settings: Homo sapiens, Gastric
Description: as §2, §3

[12] = tested on: ASKA synovial sarcoma cell line; test: as above; format: cell-based
Description: as §2, §3

[13] = tested on: ML-2 cell line; test: as above; format: cell-based; settings: Homo sapiens, ML-2; Acute myelomonocytic leukemia; read-out: IC50, ML-2
Description: as §2, §3

[14] = tested on: RH30 cell line; test: as above; format: cell-based; settings: Rhabdomyosarcoma
Description: as §2, §3

[15] = tested on: THP-1 cell line; test: as above; format: cell-based; settings: Homo sapiens, AML
Description: as §2, §3

[16] = tested on: KE39 cell line; test: as above; format: cell-based; settings: Gastric
Description: as §2, §3

[17] = tested on: RH41 cell line; test: as above; format: cell-based; settings: Homo sapiens, Rhabdomyosarcoma
Description: as §2, §3

[18] = tested on: U251MG cell line; test: as above; format: cell-based; settings: Homo sapiens, U-251; Brain
Description: as §2, §3

[19] = tested on: LOVO cell line; test: as above; format: cell-based; settings: Homo sapiens, Colon
Description: as §2, §3

[20] = tested on: OCI-M2 cell line; test: as above; format: cell-based; settings: Acute myelocytic leukemia
Description: as §2, §3

[21] = tested on: SKM-1 cell line; test: as above; format: cell-based; settings: Homo sapiens, SKM-1; Acute myeloid leukemia; read-out: IC50, SKM-1
Description: as §2, §3

[22] = tested on: OCI-AML4 cell line; test: as above; format: cell-based; settings: Acute myeloid leukemia; read-out: IC50, OCI-AML4
Description: as §2, §3

[23] = tested on: CMK cell line; test: as above; format: cell-based; settings: Homo sapiens, Acute megakaryocytic leukemia
Description: as §2, §3

[24] = tested on: MOLM13 cell line; test: as above; format: cell-based; settings: Homo sapiens, MOLM-13; AML; read-out: IC50, MOLM13
Description: as §2, §3

[25] = tested on: Daudi cell line; test: as above; format: cell-based; settings: Homo sapiens, NHL
Description: as §2, §3

[26] = tested on: THLE2 cell line; test: as above; format: cell-based; settings: THLE-2; Human liver normal
Description: as §2, §3

[27] = tested on: HS-SY-II synovial sarcoma cell line; test: as above; format: cell-based
Description: as §2, §3

[28] = tested on: PL-21 cell line; test: as above; format: cell-based; settings: Acute myeloid leukemia
Description: as §2, §3

[29] = tested on: EOL-1 cell line; test: as above; format: cell-based, human; settings: Homo sapiens, EOL1; Acute myeloid leukemia; read-out: IC50, EOL-1
Description: as §2, §3

CNCCOCCc1ccc(NC(=O)NCc2ccc3c(c2)CN(C2CCC(=O)NC2=O)C3=O)cc1Cl (stereo not drawn) [Compound P1, 1-(3-chloro-4-[2-[2-(methylamino)ethoxy]ethyl]phenyl)-3-[[2-(2,6-dioxopiperidin-3-yl)-1-oxo-3H-isoindol-5-yl]methyl]urea]
IC50 [1]: > 100 nM
IC50 ([2]; Homo sapiens, Ramos): > 100 nM
antiproliferative activity compared, in words ([2]; Ramos cells, rituximab neoDegrader conjugates versus comparators, FIG. 13): less active
IC50 ([3]; Homo sapiens, NCI-N87, Gastric, conjugates DAR 8): > 100 nM
anti-proliferative activity compared, in words ([3]; NCI-N87 cells, neoDegrader conjugates (DAR 8) versus comparators, FIGS. 16 and 17): significantly less active
IC50 [4]: > 100 nM
antiproliferative activity compared, in words ([5]; Daudi cells, rituximab neoDegrader conjugates versus comparators, FIGS. 14 and 15): less active
IC50 ([5]; Homo sapiens, Daudi): > 100 nM
IC50 [6]: 13 nM
IC50 [7]: > 100 nM
IC50 ([8]; Homo sapiens, SK-BR-3, Breast, conjugates DAR 8): 100 nM
anti-proliferative activity compared, in words ([8]; SK-BR-3 cells, neoDegrader conjugates (DAR 8) versus comparators, FIGS. 7 and 8): significantly less active
IC50 [9]: > 100 nM
IC50 [10]: 97.1 nM
IC50 [11]: > 1000 nM
IC50 [12]: 71.2 nM
IC50 [13]: 1.86 nM
IC50 [14]: 174 nM
IC50 [15]: 350 nM
IC50 [16]: > 1000 nM
IC50 [17]: 1210 nM
IC50 [18]: > 1000 nM
IC50 [19]: > 1000 nM
IC50 [20]: 650 nM
IC50 [21]: 3.21 nM
IC50 [22]: 22.4 nM
IC50 [23]: 408 nM
IC50 [24]: 24.8 nM
IC50 [25]: 47.4 nM
IC50 [26]: > 1000 nM
IC50 [27]: 11.7 nM
IC50 [28]: 7.55 nM
IC50 [29]: 3.1 nM
